PubChem BioAssay AID463102 (The Scripps Research Institute Molecular Screening Center, 2010)
Activity calls are given as the source filed them.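 Rule for the calls: active = target enzyme band signal cut by at least 80% with no off-target protein band also blocked; inactive = weaker inhibition or any off-target band blocked.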

How the values were obtained:
[1] = GSTO1 inhibition and proteome off-target reactivity, late-stage follow-up, selectivity assay for GSTO1 inhibitor project, cell lysate, MDA-MB-435 proteome, gel ABPP, endogenous enzyme (AID 463102); details: competitive gel ABPP, SE-Rh probe, measured here: total off-target bands hit, stronger effect = lower value
[2] = target: Glutathione S-transferase omega-1 (Homo sapiens) (UniProt P78417); experiment: as above; details: competitive gel ABPP, SE-Rh probe, stronger effect = higher value
Glutathione S-transferase omega-1 (Homo sapiens), sequence (P78417 whole entry, looked up): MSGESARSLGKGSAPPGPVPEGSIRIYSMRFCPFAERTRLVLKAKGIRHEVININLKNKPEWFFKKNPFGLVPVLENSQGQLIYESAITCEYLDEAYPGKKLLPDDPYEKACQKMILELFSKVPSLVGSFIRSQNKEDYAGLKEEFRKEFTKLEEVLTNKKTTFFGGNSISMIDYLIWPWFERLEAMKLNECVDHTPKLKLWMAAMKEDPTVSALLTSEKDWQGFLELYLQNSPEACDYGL

anti-target hits [1] | inhibition ([2]; GSTO1 inhibition, at 1 µM) [%] | inhibition ([2]; at 0.1 µM) | Compound
2 | 93 | 34% (inactive) | O=C(NCCCN(C(=O)CCl)c1ccc([N+](=O)[O-])cc1)c1ccccc1
2 | 100 | 48% (inactive) | C#CCCCCNC(=O)C(c1cccnc1)N(C(=O)CCl)c1ccc(F)cc1 (stereo not drawn)
0 | 100 | 51% (inactive) | C#CCCCCN(C(=O)CCl)c1ccc([N+](=O)[O-])cc1
0 | 100 | 85% | O=C(CCl)N(CCCNC(=O)C(F)(F)F)c1ccc(Cl)cc1
2 | 92 | 28% (inactive) | O=C(NC1CCCCC1)C(c1cccnc1)N(C(=O)CCl)c1cccc(C(F)(F)F)c1 (stereo not drawn)
0 | 100 | 64% (inactive) | C#CCNC(=O)C(c1ccc(OC)cc1)N(C(=O)CCl)c1ccc(Cl)cc1 (stereo not drawn)
1 | 100 | 90% (inactive) | O=C(CCl)N(CCCCCNC(=O)C(F)(F)F)c1ccc([N+](=O)[O-])cc1
0 | 100 | 59% (inactive) | C#CCCC(=O)NCCCN(C(=O)CCl)c1ccc([N+](=O)[O-])cc1
0 | 90 | 27% (inactive) | COc1ccc(N(CCCNC(=O)C(F)(F)F)C(=O)CCl)cc1
1 | 100 | 45% (inactive) | COc1ccc(N(C(=O)CCl)C(C(=O)NC2CCCCC2)c2cccnc2)cc1 (stereo not drawn)
6 | 100 | 67% (inactive) | CCCCCCCCCCN(C(=O)CCl)c1ccc([N+](=O)[O-])cc1
2 | 89 | 26% (inactive) | Cc1cccc(CN2CCN(C(=O)CCl)CC2)c1
2 | 100 | 79% (inactive) | O=C(NC1CCCCC1)C(c1cccnc1)N(C(=O)CCl)c1ccc(Cl)cc1 (stereo not drawn)
4 | 100 | 85% (inactive) | COc1ccc(N(C(=O)CCl)C(C(=O)NCCc2ccccc2)c2cccs2)cc1Cl (stereo not drawn)
4 | 100 | 77% (inactive) | O=c1[nH]c(CCl)nc2cc(-c3ccc(F)cc3)sc12
0 | 62 | 16% (inactive) | CC(=O)NCCCN(C(=O)CCl)c1ccc([N+](=O)[O-])cc1
1 | 55 | 0% (inactive) | O=C(NC1CCCCC1)C(c1cccnc1)N(C(=O)CCl)c1ccc(C(F)(F)F)cc1 (stereo not drawn)
0 | 100 | 62% (inactive) | O=C(CCl)N(CCCNC(=O)C(F)(F)F)c1cccc(C(F)(F)F)c1

anti-target hits [1] | inhibition ([2]; GSTO1 inhibition, at 1 µM) [%] | inhibition ([2]; at 0.1 µM) | Compound
0 | 100 | 99% | O=C(CCl)N(CCCCNC(=O)C(F)(F)F)c1ccc([N+](=O)[O-])cc1
2 | 100 | 100% (inactive) | O=C(NC1CCCCC1)C(c1cccnc1)N(C(=O)CCl)c1cccc(Cl)c1 (stereo not drawn)
1 | 100 | 98% (inactive) | COc1ccc(C(C(=O)NC2CCCCC2)N(C(=O)CCl)c2cccc(Cl)c2)cc1 (stereo not drawn)
6 | 93 | 38% (inactive) | Cc1ccc2c(c1)c1c3n2CCN(C(=O)CCl)C3CCC1 (stereo not drawn)
1 | 100 | 69% (inactive) | C#CCNC(=O)C(c1ccc(OC)cc1)N(C(=O)CCl)c1cccc(Cl)c1 (stereo not drawn)
0 | 94 | 25% (inactive) | O=C(CCl)N(CCCNC(=O)C(F)(F)F)c1ccc(F)cc1
3 | 93 | 28% (inactive) | Cc1nn(-c2ccccc2)c(Cl)c1CN(C(=O)CCl)c1ccc(Cl)cc1
0 | 88 | 19% (inactive) | O=S(=O)(c1ccc(Cl)cc1)N1CCC2(CC1)CO2
2 | 100 | 93% (inactive) | O=C(NC1CCCCC1)C(c1cccnc1)N(C(=O)CCl)c1ccc(Cl)c(Cl)c1 (stereo not drawn)
2 | 100 | 71% (inactive) | O=C(NC1CCCCC1)C(c1cccnc1)N(C(=O)CCl)c1ccc(F)cc1 (stereo not drawn)
0 | 73 | 16% (inactive) | O=C(CCl)N(CCCNC(=O)C(F)(F)F)c1ccccc1
2 | 90 | 29% (inactive) | O=C(NCCCN(C(=O)CCl)c1ccc([N+](=O)[O-])cc1)c1ccc(F)cc1
9 | 100 | 81% (inactive) | COc1ccc(C(CCN(Cc2ccc(OC)c(OC)c2)C(=O)CCl)c2ccccc2)cc1 (stereo not drawn)
0 | 100 | 100% | C#CCN(CCCN(C(=O)CCl)c1ccc([N+](=O)[O-])cc1)C(=O)C(F)(F)F
5 | 100 | 57% (inactive) | O=C(CCl)N1CCN(S(=O)(=O)c2ccc3ccccc3c2)CC1
1 | 100 | 83% (inactive) | C#CCCCCNC(=O)C(c1ccc(OC)cc1)N(C(=O)CCl)c1cccc(Cl)c1 (stereo not drawn)
0 | 55 | 10% (inactive) | Cc1ccc(N(CCCNC(=O)C(F)(F)F)C(=O)CCl)cc1
0 | 100 | 87% | COc1ccc(C(C(=O)NC2CCCCC2)N(C(=O)CCl)c2ccc(Cl)cc2)cc1 (stereo not drawn)
